pIC50: −log10 of the molar value.
Columns and labels:
SK-MEL-3 cells = assay: Assay 1 cell proliferation measurement (CTG, 72 h), SK-MEL-3; format: cell-based, human; settings: Homo sapiens, SK-MEL3; Assay 1, 72 h, Cell Titer Glo; read-out: SK-MEL-3 IC50 [nM] (melanoma)
Summary of the method: (§1)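 CTG luminescence readout after 72 h compound exposure at 37 °C; 10-point 2.5-fold dilutions from 100 nM max final; DMSO 0.3% vehicle. IC50 from 4-parameter fit, normalised to 0 h plate (max inhibition) and DMSO (min inhibition).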

human full length PDE3A = human full length PDE3A (Homo sapiens (Human), UniProt Q14432); assay: Assay 4 PDE3A enzyme inhibition (3H-cAMP SPA); format: biochemical; settings: Sf9 cell extract
Sequence of human full length PDE3A (Q14432 whole entry): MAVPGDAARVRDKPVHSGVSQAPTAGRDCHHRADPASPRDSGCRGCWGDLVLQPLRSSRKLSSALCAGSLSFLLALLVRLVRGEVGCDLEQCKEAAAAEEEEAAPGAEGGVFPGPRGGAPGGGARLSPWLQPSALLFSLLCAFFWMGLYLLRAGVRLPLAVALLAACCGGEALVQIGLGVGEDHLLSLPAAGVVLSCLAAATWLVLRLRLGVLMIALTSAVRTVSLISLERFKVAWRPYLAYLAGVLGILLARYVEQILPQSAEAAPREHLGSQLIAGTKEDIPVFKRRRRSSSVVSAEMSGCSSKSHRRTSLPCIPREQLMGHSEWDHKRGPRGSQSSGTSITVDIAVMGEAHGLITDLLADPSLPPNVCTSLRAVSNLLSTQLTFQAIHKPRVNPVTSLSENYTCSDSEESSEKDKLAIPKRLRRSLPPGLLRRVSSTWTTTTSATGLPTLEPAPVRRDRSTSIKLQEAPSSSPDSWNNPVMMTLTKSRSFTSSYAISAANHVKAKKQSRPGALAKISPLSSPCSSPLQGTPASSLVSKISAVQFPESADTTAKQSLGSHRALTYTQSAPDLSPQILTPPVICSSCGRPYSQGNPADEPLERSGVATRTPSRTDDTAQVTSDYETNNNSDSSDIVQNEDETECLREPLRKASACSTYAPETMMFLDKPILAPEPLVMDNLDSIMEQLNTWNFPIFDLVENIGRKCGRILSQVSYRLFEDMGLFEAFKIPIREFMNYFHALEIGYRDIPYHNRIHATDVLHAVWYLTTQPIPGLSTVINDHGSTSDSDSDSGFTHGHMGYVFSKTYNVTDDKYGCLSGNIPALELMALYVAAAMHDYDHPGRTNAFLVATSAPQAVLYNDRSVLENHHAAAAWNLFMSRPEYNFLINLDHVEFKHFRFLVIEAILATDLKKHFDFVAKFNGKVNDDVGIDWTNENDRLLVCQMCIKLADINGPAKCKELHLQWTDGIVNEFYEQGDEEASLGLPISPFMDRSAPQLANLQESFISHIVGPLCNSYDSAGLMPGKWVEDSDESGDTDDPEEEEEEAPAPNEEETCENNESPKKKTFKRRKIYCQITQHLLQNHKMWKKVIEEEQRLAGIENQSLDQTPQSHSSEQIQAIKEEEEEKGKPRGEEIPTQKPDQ
Summary of the method: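 In this SPA format, the 60-min room-temperature reaction used 0.025 μCi [8-3H]cAMP and diluted full-length PDE3A from Sf9 cells. Percentage activity was plotted against log compound concentration to derive IC50.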

human full length PDE3B = human full length PDE3B (Homo sapiens (Human), UniProt Q13370); assay: Assay 5 PDE3B enzyme inhibition (3H-cAMP SPA); format: biochemical; settings: Sf9 cell extract
Sequence of human full length PDE3B (Q13370 whole entry): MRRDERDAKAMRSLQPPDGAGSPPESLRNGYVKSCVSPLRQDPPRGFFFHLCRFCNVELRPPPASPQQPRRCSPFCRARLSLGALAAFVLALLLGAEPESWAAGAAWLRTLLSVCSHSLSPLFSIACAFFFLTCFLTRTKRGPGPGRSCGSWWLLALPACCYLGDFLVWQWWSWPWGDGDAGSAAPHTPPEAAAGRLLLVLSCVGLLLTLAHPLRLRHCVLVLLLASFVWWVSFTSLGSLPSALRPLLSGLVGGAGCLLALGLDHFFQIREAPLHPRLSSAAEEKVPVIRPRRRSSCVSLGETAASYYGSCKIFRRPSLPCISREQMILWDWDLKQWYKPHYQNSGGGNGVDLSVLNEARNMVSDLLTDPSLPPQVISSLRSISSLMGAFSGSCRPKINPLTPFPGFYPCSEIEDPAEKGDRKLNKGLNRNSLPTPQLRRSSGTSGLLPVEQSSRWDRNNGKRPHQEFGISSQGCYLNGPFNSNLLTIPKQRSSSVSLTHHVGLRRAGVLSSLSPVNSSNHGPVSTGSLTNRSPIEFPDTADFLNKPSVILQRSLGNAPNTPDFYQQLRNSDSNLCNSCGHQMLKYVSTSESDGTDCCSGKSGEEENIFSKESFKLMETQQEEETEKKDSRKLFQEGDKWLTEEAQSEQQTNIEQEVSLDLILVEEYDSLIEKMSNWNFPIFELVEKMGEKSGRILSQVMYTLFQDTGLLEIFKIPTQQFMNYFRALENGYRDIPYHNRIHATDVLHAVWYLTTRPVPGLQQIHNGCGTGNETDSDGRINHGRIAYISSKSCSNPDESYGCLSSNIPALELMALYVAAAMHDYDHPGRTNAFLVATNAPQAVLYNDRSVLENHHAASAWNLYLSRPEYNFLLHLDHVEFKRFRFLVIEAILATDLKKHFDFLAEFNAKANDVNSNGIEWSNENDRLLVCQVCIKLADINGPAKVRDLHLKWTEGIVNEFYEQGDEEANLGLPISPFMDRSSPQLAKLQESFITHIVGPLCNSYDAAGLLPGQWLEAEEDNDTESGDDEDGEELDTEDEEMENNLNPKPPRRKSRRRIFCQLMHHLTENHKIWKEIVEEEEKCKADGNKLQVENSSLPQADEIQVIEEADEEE
Summary of the method: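 Inhibition was measured by scintillation proximity using [8-3H]adenosine 3′,5′-cyclic phosphate as substrate and full-length human PDE3B from an Sf9 overexpression extract, run one hour at room temperature at pH 7.5.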

HeLa cells = assay: Assay 1 cell proliferation measurement (CTG, 72 h), HeLa; format: cell-based, human; settings: Homo sapiens, HeLa; Assay 1, 72 h, Cell Titer Glo; read-out: HeLa IC50 [nM] (Cervical cancer)
Summary of the method: as §1

Compound	IC50 (SK-MEL-3 cells) [nM]	pIC50 (human full length PDE3A)	pIC50 (human full length PDE3B)	IC50 (HeLa cells) [nM]
O=C1NN=C(c2ccc(-c3ccc(F)cc3Cl)c(F)c2)CO1 [Example 82, 5-(2′-Chloro-2,4′-difluorobiphenyl-4-yl)-3,6-dihydro-2H-1,3,4-oxadiazin-2-one]	9	6.70	6.49	4
O=C1NN=C(c2ccc(C3=CCCC3)c(F)c2)CO1 [Example 83, 5-[4-(Cyclopent-1-en-1-yl)-3-fluorophenyl]-3,6-dihydro-2H-1,3,4-oxadiazin-2-one]	6	7.00	6.60	3
COc1ccc(-c2ccc(C3=NNC(=O)OC3)cc2F)cn1 [Example 85, 5-[3-Fluoro-4-(6-methoxypyridin-3-yl)phenyl]-3,6-dihydro-2H-1,3,4-oxadiazin-2-one]	13	7.48	7.11	7
Cc1cc(-c2ccc(C3=NNC(=O)OC3)cc2F)ccc1F [Example 86, 5-(2,4′-Difluoro-3′-methylbiphenyl-4-yl)-3,6-dihydro-2H-1,3,4-oxadiazin-2-one]	25	7.08	6.68	6
Cc1ccc(-c2ccc(C3=NNC(=O)OC3)cc2F)cc1 [Example 88, 5-(2-Fluoro-4′-methylbiphenyl-4-yl)-3,6-dihydro-2H-1,3,4-oxadiazin-2-one]	6	6.96	6.60	2
Nc1cc(-c2ccc(C3=NNC(=O)OC3)cc2F)ccn1 [Example 90, 5-[4-(2-Aminopyridin-4-yl)-3-fluorophenyl]-3,6-dihydro-2H-1,3,4-oxadiazin-2-one]	30	7.37	7.00	16
Nc1cccc(-c2ccc(C3=NNC(=O)OC3)cc2F)c1 [Example 91, 5-[4-(3-Aminophenyl)-3-fluoro-phenyl]-3,6-dihydro-1,3,4-oxadiazin-2-one]	17	7.17	7.07	14
O=C1NN=C(c2ccc(-c3ccncc3)c(F)c2)CO1 [Example 93, 5-[3-Fluoro-4-(pyridin-4-yl)phenyl]-3,6-dihydro-2H-1,3,4-oxadiazin-2-one]	13	7.30	7.00	7
Cc1ncc(-c2ccc(C3=NNC(=O)OC3)cc2F)cn1 [Example 94, 5-[3-Fluoro-4-(2-methylpyrimidin-5-yl)phenyl]-3,6-dihydro-2H-1,3,4-oxadiazin-2-one]	36	7.04	6.55	16
COc1cc(-c2ccc(C3=NNC(=O)OC3)cc2F)ccn1 [Example 95, 5-[3-Fluoro-4-(2-methoxypyridin-4-yl)phenyl]-3,6-dihydro-2H-1,3,4-oxadiazin-2-one]	> 100	7.43	7.10	33

Second part, the compound after the results:

IC50 (SK-MEL-3 cells) [nM]	pIC50 (human full length PDE3A)	pIC50 (human full length PDE3B)	IC50 (HeLa cells) [nM]	Compound
9	6.89	6.57	4	Cc1ccccc1-c1ccc(C2=NNC(=O)OC2)cc1F [Example 81, 5-(2-Fluoro-2′-methylbiphenyl-4-yl)-3,6-dihydro-2H-1,3,4-oxadiazin-2-one]
48	6.82	6.49	19	CCc1ccccc1-c1ccc(C2=NNC(=O)OC2)cc1F [Example 84, 5-(2′-Ethyl-2-fluorobiphenyl-4-yl)-3,6-dihydro-2H-1,3,4-oxadiazin-2-one]
32	7.09	6.64	10	Cc1cccc(-c2ccc(C3=NNC(=O)OC3)cc2F)c1 [Example 87, 5-(2-Fluoro-3′-methylbiphenyl-4-yl)-3,6-dihydro-2H-1,3,4-oxadiazin-2-one]
5	6.96	6.85	2	O=C1NN=C(c2ccc(-c3ccccc3)c(F)c2)CO1 [Example 89, 5-(2-Fluorobiphenyl-4-yl)-3,6-dihydro-2H-1,3,4-oxadiazin-2-one]

— patent US11427553B2, “Dihydrooxadiazinones” (Bayer Aktiengesellschaft, priority 2017, dated 2022)
